# Reference: patent publication US6355799B1, “Substituted benzene compounds, process for their preparation, and herbicidal and defoliant compositions containing them” (ISK Americas Incorporated, priority 1997, dated 2002)
# Experiments:
# Assay type in all cases: in vivo
# [1] = tested on: redroot pigweed (Amaranthus retroflexus, AMARE); experiment: Post-emerge test, greenhouse herbicide activity screening; conditions: rating scale 0-100 (0 no damage, 100 complete death), 14 days after application
# How it was run: (§1)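 Compounds in acetone were track-sprayed at 15-1000 g ai/ha (187 l/ha) on sandy loam pots: pre-emerge one day after seeding, post-emerge at 2-3 leaf stage with 0.25% v/v non-ionic surfactant. Phytotoxicity was rated 14 days later on a 0 (no damage) to 100 (complete death) scale.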
# [2] = tested on: green foxtail (Setaria viridis, SETVI); experiment: as above; conditions: rating scale 0-100 (0 no damage, 100 complete death), 14 days after application
# How it was run: as §1
# [3] = tested on: sicklepod (Cassia obtusifolia, CASOB); experiment: as above; conditions: rating scale 0-100 (0 no damage, 100 complete death), 14 days after application
# How it was run: as §1
# [4] = tested on: johnsongrass (Sorghum halepense, SORHA); experiment: as above; conditions: rating scale 0-100 (0 no damage, 100 complete death), 14 days after application
# How it was run: as §1
# [5] = tested on: barnyardgrass (Echinochloa crus-galli, ECHCG); experiment: as above; conditions: rating scale 0-100 (0 no damage, 100 complete death), 14 days after application
# How it was run: as §1
# [6] = tested on: large crabgrass (Digitaria sanguinalis, DIGSA); experiment: as above; conditions: rating scale 0-100 (0 no damage, 100 complete death), 14 days after application
# How it was run: as §1
# [7] = tested on: lambsquarters (Chenopodium album, CHEAL); experiment: as above; conditions: rating scale 0-100 (0 no damage, 100 complete death), 14 days after application
# How it was run: as §1
# [8] = tested on: ivyleaf morningglory (Ipomoea hederacea, IPOHE); experiment: as above; conditions: rating scale 0-100 (0 no damage, 100 complete death), 14 days after application
# How it was run: as §1
# [9] = tested on: velvetleaf (Abutilon theophrasti, ABUTH); experiment: as above; conditions: rating scale 0-100 (0 no damage, 100 complete death), 14 days after application
# How it was run: as §1
# [10] = tested on: redroot pigweed (Amaranthus retroflexus, AMARE); experiment: Pre-emerge test, greenhouse herbicide activity screening; conditions: rating scale 0-100, 14 days after application
# How it was run: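 Sandy loam pots; pre-emerge: sown 1 d pre-spray, surface-watered after, then bottom-watered. Post-emerge: sown 8–21 d before, 2–3 leaf stage, + 0.25% v/v NIS, bottom-watered. Acetone, 187 l/ha track spray, 15–1000 g ai/ha. 0–100 injury score, day 14.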
# [11] = tested on: green foxtail (Setaria viridis, SETVI); experiment: as above; conditions: rating scale 0-100, 14 days after application
# How it was run: (§2)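 Plants grown in 10 cm pots of sandy loam mix received acetone-dissolved compounds through a moving flat-fan nozzle. Doses ranged from 15 to 1000 g ai/ha. Pre-emerge pots were seeded one day earlier, post-emerge pots 8–21 days earlier. Fourteen days on, each pot was graded 0–100 for damage.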
# [12] = tested on: sicklepod (Cassia obtusifolia, CASOB); experiment: as above; conditions: rating scale 0-100, 14 days after application
# How it was run: as §2
# [13] = tested on: johnsongrass (Sorghum halepense, SORHA); experiment: as above; conditions: rating scale 0-100, 14 days after application
# How it was run: as §2
# [14] = tested on: barnyardgrass (Echinochloa crus-galli, ECHCG); experiment: as above; conditions: rating scale 0-100, 14 days after application
# How it was run: as §2
# [15] = tested on: large crabgrass (Digitaria sanguinalis, DIGSA); experiment: as above; conditions: rating scale 0-100, 14 days after application
# How it was run: as §2
# [16] = tested on: lambsquarters (Chenopodium album, CHEAL); experiment: as above; conditions: rating scale 0-100, 14 days after application
# How it was run: as §2
# [17] = tested on: ivyleaf morningglory (Ipomoea hederacea, IPOHE); experiment: as above; conditions: rating scale 0-100, 14 days after application
# How it was run: as §2
# [18] = tested on: velvetleaf (Abutilon theophrasti, ABUTH); experiment: as above; conditions: rating scale 0-100, 14 days after application
# How it was run: as §2
# [19] = tested on: upland rice (Oryza sp., var. Tebonnet, RICE); experiment: Post-emerge test, crop safety; conditions: rating scale 0-100 (0 no damage, 100 complete death), 14 days after application
# How it was run: (§3)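 Each test used a mechanized track sprayer delivering 187 l/ha of acetone solution at 15–1000 g ai/ha. Post-emerge foliage at 2–3 leaves was treated with added 0.25% v/v non-ionic surfactant and bottom-watered only. Injury was assessed on day 14, where 100 means total kill.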
# [20] = tested on: field corn (Zea mays L., var. Dekalb 535, CORN); experiment: Post-emerge test, crop safety; conditions: rating scale 0-100 (0 no damage, 100 complete death), 14 days after application
# How it was run: as §3
# [21] = tested on: upland rice (Oryza sp., var. Tebonnet, RICE); experiment: Pre-emerge test, crop safety; conditions: rating scale 0-100, 14 days after application
# How it was run: as §1
# [22] = tested on: field corn (Zea mays L., var. Dekalb 535, CORN); experiment: Pre-emerge test, crop safety; conditions: rating scale 0-100, 14 days after application
# How it was run: as §1
smiles,measurement,setting,value
CCCCCCOC(=O)C(C)(Cl)Cc1c(OC)c(Cl)cc(F)c1-n1c(=O)cc(C(F)(F)F)n(C)c1=O (centres unmarked) [14-38],"Post-emerge Herbicidal Activity, phytotoxicity rating AMARE",[1]; Rate 63 g ai/ha,100
same,"Post-emerge Herbicidal Activity, phytotoxicity rating AMARE",[1]; Rate 250 g ai/ha,100
same,"Post-emerge Herbicidal Activity, phytotoxicity rating SETVI",[2]; Rate 63 g ai/ha,90
same,"Post-emerge Herbicidal Activity, phytotoxicity rating SETVI",[2]; Rate 250 g ai/ha,100
same,"Post-emerge Herbicidal Activity, phytotoxicity rating CASOB",[3]; Rate 63 g ai/ha,0
same,"Post-emerge Herbicidal Activity, phytotoxicity rating CASOB",[3]; Rate 250 g ai/ha,0
same,"Post-emerge Herbicidal Activity, phytotoxicity rating SORHA",[4]; Rate 63 g ai/ha,0
same,"Post-emerge Herbicidal Activity, phytotoxicity rating SORHA",[4]; Rate 250 g ai/ha,30
same,"Post-emerge Herbicidal Activity, phytotoxicity rating ECHCG",[5]; Rate 63 g ai/ha,100
same,"Post-emerge Herbicidal Activity, phytotoxicity rating ECHCG",[5]; Rate 250 g ai/ha,100
same,"Post-emerge Herbicidal Activity, phytotoxicity rating DIGSA",[6]; Rate 63 g ai/ha,95
same,"Post-emerge Herbicidal Activity, phytotoxicity rating DIGSA",[6]; Rate 250 g ai/ha,100
same,"Post-emerge Herbicidal Activity, phytotoxicity rating CHEAL",[7]; Rate 63 g ai/ha,100
same,"Post-emerge Herbicidal Activity, phytotoxicity rating CHEAL",[7]; Rate 250 g ai/ha,100
same,"Post-emerge Herbicidal Activity, phytotoxicity rating IPOHE",[8]; Rate 63 g ai/ha,70
same,"Post-emerge Herbicidal Activity, phytotoxicity rating IPOHE",[8]; Rate 250 g ai/ha,70
same,"Post-emerge Herbicidal Activity, phytotoxicity rating ABUTH",[9]; Rate 63 g ai/ha,100
same,"Post-emerge Herbicidal Activity, phytotoxicity rating ABUTH",[9]; Rate 250 g ai/ha,100
same,"Pre-emerge herbicidal activity, phytotoxicity rating AMARE",[10]; 63 g ai/ha,99
same,"Pre-emerge herbicidal activity, phytotoxicity rating AMARE",[10]; 250 g ai/ha,100
same,"Pre-emerge herbicidal activity, phytotoxicity rating SETVI",[11]; 63 g ai/ha,0
same,"Pre-emerge herbicidal activity, phytotoxicity rating SETVI",[11]; 250 g ai/ha,80
same,"Pre-emerge herbicidal activity, phytotoxicity rating CASOB",[12]; 63 g ai/ha,0
same,"Pre-emerge herbicidal activity, phytotoxicity rating CASOB",[12]; 250 g ai/ha,0
same,"Pre-emerge herbicidal activity, phytotoxicity rating SORHA",[13]; 63 g ai/ha,0
same,"Pre-emerge herbicidal activity, phytotoxicity rating SORHA",[13]; 250 g ai/ha,0
same,"Pre-emerge herbicidal activity, phytotoxicity rating ECHCG",[14]; 63 g ai/ha,0
same,"Pre-emerge herbicidal activity, phytotoxicity rating ECHCG",[14]; 250 g ai/ha,70
same,"Pre-emerge herbicidal activity, phytotoxicity rating DIGSA",[15]; 63 g ai/ha,0
same,"Pre-emerge herbicidal activity, phytotoxicity rating DIGSA",[15]; 250 g ai/ha,90
same,"Pre-emerge herbicidal activity, phytotoxicity rating CHEAL",[16]; 63 g ai/ha,90
same,"Pre-emerge herbicidal activity, phytotoxicity rating CHEAL",[16]; 250 g ai/ha,100
same,"Pre-emerge herbicidal activity, phytotoxicity rating IPOHE",[17]; 63 g ai/ha,0
same,"Pre-emerge herbicidal activity, phytotoxicity rating IPOHE",[17]; 250 g ai/ha,0
same,"Pre-emerge herbicidal activity, phytotoxicity rating ABUTH",[18]; 63 g ai/ha,40
same,"Pre-emerge herbicidal activity, phytotoxicity rating ABUTH",[18]; 250 g ai/ha,100
same,Post-emerge phytotoxicity rating RICE (crop damage),[19]; Rate 63 g ai/ha,0
same,Post-emerge phytotoxicity rating RICE (crop damage),[19]; Rate 250 g ai/ha,40
same,Post-emerge phytotoxicity rating CORN (crop damage),[20]; Rate 63 g ai/ha,50
same,Post-emerge phytotoxicity rating CORN (crop damage),[20]; Rate 250 g ai/ha,100
same,"Pre-emerge phytotoxicity rating, crop damage RICE",[21]; 63 g ai/ha,0
same,"Pre-emerge phytotoxicity rating, crop damage RICE",[21]; 250 g ai/ha,30
same,"Pre-emerge phytotoxicity rating, crop damage CORN",[22]; 63 g ai/ha,0
same,"Pre-emerge phytotoxicity rating, crop damage CORN",[22]; 250 g ai/ha,0
